Test results reported in PubChem BioAssay (NCI).
“And” between values parts separate entries of the source, which are not always exact repeats. Equal entries are not always repeated.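 Results reflect a 48-hour exposure of cells in 96-well plates to compound at five concentrations. GI50 marks 50% less growth. TGI: concentration producing complete growth inhibition.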

How the values were obtained:
Test in all cases: inhibition of tumour cell growth, NCI panel, 48 h
COLO 205 colon = tested on: COLO 205 colon
HOP-62 NSCLC = tested on: HOP-62 NSCLC
NCI-H226 lung = tested on: NCI-H226 lung
EKVX NSCLC = tested on: EKVX NSCLC
SF-539 CNS = tested on: SF-539 CNS
RXF 393 renal = tested on: RXF 393 renal
HCT-116 colon = tested on: HCT-116 colon
ACHN renal = tested on: ACHN renal
SW-620 colon = tested on: SW-620 colon
U251 CNS = tested on: U251 CNS

SMILES	GI50 (COLO 205 colon) [µM]	TGI (COLO 205 colon)	GI50 (HOP-62 NSCLC)	TGI (HOP-62 NSCLC)	GI50 (NCI-H226 lung) [µM]	TGI (NCI-H226 lung)	GI50 (EKVX NSCLC) [µM]	TGI (EKVX NSCLC)	GI50 (SF-539 CNS) [µM]	TGI (SF-539 CNS) [µM]	GI50 (RXF 393 renal) [µM]	TGI (RXF 393 renal)	GI50 (HCT-116 colon)	TGI (HCT-116 colon)	GI50 (ACHN renal) [µM]	TGI (ACHN renal)	GI50 (SW-620 colon) [µM]	TGI (SW-620 colon) [µM]	GI50 (U251 CNS)	TGI (U251 CNS)
O=C1C(Cl)=C(Oc2ccccc2)C(=O)c2ccccc21	1.68	3.24 µM	8.55 µM	22.2 µM	12.1	28.7 µM	4.77	24 µM	5.96	14.2	2.75	6.84 µM	1.82 µM	3.41 µM	1.63	3.14 µM	1.81	3.57	3.57 µM	13.4 µM
COc1ccc2c(CN3CCC(CO)CC3)cc3cc4c(cc3c2c1)OCO4	0.122	1.07 µM	0.272 µM	2.03 µM	0.225	0.56 µM	0.415	6.29 µM	0.254	1.64	0.0843	0.847 µM	0.069 µM	0.529 µM	0.0825	0.45 µM	0.141	11	0.265 µM	8.82 µM
COc1ccc(-n2c(-c3ccc(NC(=O)CCCl)cc3)nnc2-c2cc(OC)c(OC)c(OC)c2)cc1	2.02	4.75 µM	3.49 µM	13.4 µM	10.8	> 14.3 µM	3	> 14.3 µM	3.04	10.3	2.44	5.02 µM	2.81 µM	8.54 µM	2.21	8.4 µM	4.55	> 14.3	3.69 µM	13.5 µM
C=C1C(=O)OC2C1C(OC(=O)/C(C)=C/C)CC(O)(CCl)C1C(OC(C)=O)C=C(C)C21O (centres undefined)	–	24.3 µM	–	> 66 µM	–	> 61.3 µM	–	24.7 µM	–	41	–	25 µM	–	20.8 µM	–	22.7 µM	–	14	–	41.2 µM
N.N.NCCCCN.O=C([O-])CC(=O)[O-].O=C([O-])CC(=O)[O-].[Pt+4].[Pt+4]	> 100	> 100 µM	> 100 µM	> 100 µM	> 100	> 100 µM	> 100	> 100 µM	76.4	> 100	> 100	> 100 µM	> 100 µM	> 100 µM	26.9	> 100 µM	> 100	> 100	48.5 µM	> 100 µM
NCCCn1c2c(c3ccccc3c1=O)C(=O)c1cc3c(cc1-2)OCO3	0.121	1.98 µM	0.278 µM	12.2 µM	0.514	3.48 µM	1.23	4.79 µM	0.242	1.31	2.35	> 30.3 µM	0.213 µM	–	0.061	0.295 µM	0.111	2.35	0.149 µM	1.52 µM
COC(=O)c1ccc(-c2nc3cc(F)c(F)cc3nc2C#N)cc1	13	33.2 µM	9.9 µM	18 µM	9.39	21.4 µM	9.89	19.5 µM	10.7	18.7	8.53	17.6 µM	7.84 µM	14.6 µM	11.5	26.3 µM	4.66	16.8	10.1 µM	21.4 µM
Nc1nc(SCC(=O)O)[nH]c(=O)c1N	–	> 100 µM	–	> 100 µM	–	> 100 µM	–	> 100 µM	–	> 100	–	> 100 µM	–	> 100 µM	–	> 100 µM	–	> 100	–	> 100 µM
O=C1CC2(CCCc3sccc32)C(=O)N1 (centres undefined)	–	> 100 µM	–	> 100 µM	–	> 100 µM	–	> 100 µM	–	> 100	–	> 100 µM	–	> 100 µM	–	> 100 µM	–	> 100	–	> 100 µM
CCOC(=O)c1sc2ncn(Cc3cccc(Cl)c3)c(=O)c2c1C	20.7	36.6 µM	12 µM	24.4 µM	12.9	25.8 µM	17.3	31 µM	19.3	33.4	16.6	30.2 µM	12.3 µM	24.8 µM	14.7	27.9 µM	18.1	32	12.9 µM	25.6 µM
Cc1c2ncccc2c(C)c2c1[nH]c1ccc(O)cc12	23.1	24.3 µM and 111 µM	4.01 µM and 5.07 µM	10.8 µM and 59.5 µM	7.8	22.2 µM and 17.6 µM	1.01	17.3 µM and 63 µM	4.85	20.8	10.7	9.81 µM and 43 µM	2.91 µM and 6.58 µM	11 µM and 64.6 µM	3.06	12.4 µM and 18.7 µM	7.83	39.9	9.94 µM and 4.34 µM	13.9 µM and 21.6 µM
O=C(Nc1ncc([N+](=O)[O-])s1)c1cccc([N+](=O)[O-])c1	4	24.7 µM	3.75 µM	> 40.9 µM	4.1	> 60.1 µM	2.8	> 100 µM	3.23	37.1	2.44	6.91 µM	2.72 µM	16.5 µM	5.41	> 68.1 µM	6.04	> 100	3.54 µM	> 100 µM
O=C1C2c3[nH]c4ccccc4c3C3CCSCC3C2C(=O)N1c1ccccc1 (centres undefined)	–	> 100 µM	–	> 100 µM	–	> 100 µM	–	> 100 µM	–	> 100	–	> 100 µM	–	> 100 µM	–	> 100 µM	–	> 100	–	> 100 µM
c1ccc(Oc2c3ccccc3nc3ccccc23)cc1	2.61	6.07 µM	3.53 µM	12.3 µM	6.89	27.1 µM	4.43	20.9 µM	2	5.22	3.6	15.1 µM	0.714 µM	3.13 µM	3.61	13.7 µM	1.64	17.5	3.26 µM	11 µM
